From patent US9512075B2 (OKAYAMA UNIVERSITY, priority 2012, dated 2016)
In brackets after ≈: the same amount, converted by molar mass. Read-outs that look alike come from different tables or passages of the source.

Legend:
Type in all cases: cell-based
[1] = system: Enterococcus faecalis NCTC12201 strain (vancomycin-resistant Enterococcus: VRE); experiment: MIC for Enterococcus faecalis NCTC12201 strain (VRE); settings: read-out: MIC Enterococcus faecalis NCTC 12201 (VRE)
[2] = system: Staphylococcus aureus 209P strain; experiment: MIC for Staphylococcus aureus 209P strain; settings: Staphylococcus aureus, read-out: MIC Straphyrococcus aureus 209P
[3] = system: Staphylococcus aureus MRSA No. 17 (methicillin-resistant Staphylococcus aureus: MRSA); experiment: MIC for Staphylococcus aureus MRSA No. 17; settings: MRSA No. 17, regular bouillon medium, 37° C. overnight, turbidity, read-out: MIC Straphyrococcus aureus MRSA No. 17 (MRSA)
[4] = system: Escherichia coli K-12 strain; experiment: MIC for Escherichia coli K-12 strain; settings: Escherichia coli, K12STRAIN, read-out: MIC Escherichia coli K12
[5] = system: Enterococcus faecalis 5038 strain; experiment: MIC for Enterococcus faecalis 5038 strain; settings: 5038 strain, Heart Infusion Broth medium, 37° C. overnight, turbidity, read-out: MIC Enterococcus faecalis 5038
[6] = system: Escherichia coli BE1121 strain; experiment: MIC for Escherichia coli BE1121 strain; settings: Escherichia coli, BE1121STRAIN, read-out: MIC Escherichia coli BE1121
[7] = system: Staphylococcus aureus Smith strain; experiment: MIC for Staphylococcus aureus Smith strain; settings: Smith strain, regular bouillon medium, 37° C. overnight, turbidity, read-out: MIC Straphyrococcus aureus Smith
[8] = system: Clostridium perfringens PB6K strain; experiment: microbe, parasite or virus in culture; settings: Clostridium perfringens, PB6KSTRAIN, read-out: MIC Clostridium perfringens PB6K, PB6K strain; CD medium, 37° C. overnight, 10% CO2-containing anaerobic conditions
[9] = system: Clostridium difficile JCM1296 strain; experiment: microbe, parasite or virus in culture; settings: Clostridioides difficile, JCM1296, read-out: MIC Clostridium difficile JCM1296
[10] = NCTC12201 strain (VRE), Heart Infusion Broth medium, 37° C. overnight, turbidity
[11] = 209P strain, regular bouillon medium, 37° C. overnight, turbidity
[12] = K-12 strain, regular bouillon medium, 37° C. overnight, turbidity
[13] = BE1121 strain, regular bouillon medium, 37° C. overnight, turbidity

Compound	MIC [1, 10] [µg/mL]	MIC [2, 11] [µg/mL]	MIC [3] [µg/mL]	MIC [4, 12] [µg/mL]	MIC [5] [µg/mL]	MIC [6, 13] [µg/mL]	MIC [7] [µg/mL]	MIC [8] [µg/mL]	MIC [9] [µg/mL]	MIC ([2]; 209P) [µg/mL]	MIC [4] [µg/mL]	MIC [6] [µg/mL]	MIC [1] [µg/mL]
CCCCCCCCNC(=O)c1c(O)c2cc(F)ccc2oc1=O [B022, 6-fluoro-3-(octylaminocarbonyl)-4-hydroxycoumarin]	256 (≈ 763 µM)	128 (≈ 382 µM)	256 (≈ 763 µM)	256 (≈ 763 µM)	256 (≈ 763 µM)	128 (≈ 382 µM)	128 (≈ 382 µM)	64 (≈ 191 µM)	16 (≈ 47.7 µM)				
CCCCCCCCCCOCC(O)=C1C(=O)N(C(C)=O)c2ccc(F)cc21 [A023, N-acetyl-3-decyloxyacetyl-5-fluoro-2-oxyindole]	0.25 (≈ 0.639 µM)	128 (≈ 327 µM)	64 (≈ 163 µM)	128 (≈ 327 µM)	0.25 (≈ 0.639 µM)	128 (≈ 327 µM)	1 (≈ 2.55 µM)	< 0.125	< 0.125				
CCCCCCCCCCSCC(O)=C1C(=O)N(C(=O)Nc2ccccc2)c2ccc(F)cc21 [A037, N-(phenylaminocarbonyl)-3-decylthioacetyl-5-fluoro-2-oxyindole]	0.5 (≈ 1.03 µM)	2 (≈ 4.13 µM)	2 (≈ 4.13 µM)	256 (≈ 528 µM)	0.5 (≈ 1.03 µM)	256 (≈ 528 µM)	0.25 (≈ 0.516 µM)	1 (≈ 2.06 µM)	0.5 (≈ 1.03 µM)				
CCCCC1CCC(C(O)=C2C(=O)N(C(=O)OC(C)(C)C)c3ccccc32)CC1 (stereo not drawn) [A008, N-Boc-3-(4-butylcyclohexylcarbonyl)-2-oxyindole]	128 (≈ 320 µM)	64 (≈ 160 µM)	256 (≈ 641 µM)	128 (≈ 320 µM)	128 (≈ 320 µM)	128 (≈ 320 µM)	128 (≈ 320 µM)	2 (≈ 5.01 µM)	1 (≈ 2.5 µM)				
CCCCCCCCCC(O)=C1C(=O)N(C(=O)Nc2ccc(OC)cc2)c2ccccc21 [A046, N-(4-methoxyphenylaminocarbonyl)-3-decanoyl-2-oxyindole]	256 (≈ 586 µM)	256 (≈ 586 µM)	256 (≈ 586 µM)	256 (≈ 586 µM)	256 (≈ 586 µM)	256 (≈ 586 µM)	256 (≈ 586 µM)	8 (≈ 18.3 µM)	1 (≈ 2.29 µM)				
CCCCCCCCCC(=O)N1C(=O)/C(=C(/C)O)c2cc(F)ccc21 [A051, N-decanoyl-3-acetyl-5-fluoro-2-oxyindole]	0.25 (≈ 0.72 µM)		4 (≈ 11.5 µM)		0.5 (≈ 1.44 µM)		0.5 (≈ 1.44 µM)	8 (≈ 23 µM)	1 (≈ 2.88 µM)	4 (≈ 11.5 µM)	56 (≈ 161 µM)	2 (≈ 5.76 µM)	
CCCCCCCCCCOCC(=O)c1c(O)c2cc(C)ccc2oc1=O [B029, 3-decyloxyacetyl-6-methyl-4-hydroxycoumarin]	2 (≈ 5.34 µM)	256 (≈ 684 µM)	256 (≈ 684 µM)	256 (≈ 684 µM)	8 (≈ 21.4 µM)	256 (≈ 684 µM)	4 (≈ 10.7 µM)	< 0.125	< 0.125				
CCCCCCCCCCOCC(O)=C1C(=O)N(C(=O)Nc2ccc(OC)cc2)c2ccc(F)cc21 [A047, N-(4-methoxyphenylaminocarbonyl)-3-decyloxyacetyl-5-fluoro-2-oxyindole]	16 (≈ 32.1 µM)	128 (≈ 257 µM)	128 (≈ 257 µM)	128 (≈ 257 µM)	4 (≈ 8.02 µM)	128 (≈ 257 µM)	8 (≈ 16 µM)	0.25 (≈ 0.501 µM)	1 (≈ 2.01 µM)				
CCCCC1CCC(C(O)=C2C(=O)N(C(=O)c3ccccc3)c3ccccc32)CC1 (stereo not drawn) [A014, N-benzoyl-3-(4-butylcyclohexylcarbonyl)-2-oxyindole]	0.5 (≈ 1.24 µM)	2 (≈ 4.96 µM)	4 (≈ 9.91 µM)	128 (≈ 317 µM)	1 (≈ 2.48 µM)	128 (≈ 317 µM)	1 (≈ 2.48 µM)	8 (≈ 19.8 µM)	4 (≈ 9.91 µM)				
CCCCCCCCC(O)=C1C(=O)N(C(=O)Nc2ccccc2)c2ccc(F)cc21 [A059, N-(phenylaminocarbonyl)-5-fluoro-3-nonanoyl-2-oxyindole]	25 (≈ 60.9 µM)		64 (≈ 156 µM)		0.5 (≈ 1.22 µM)		0.5 (≈ 1.22 µM)	4 (≈ 9.74 µM)	8 (≈ 19.5 µM)	64 (≈ 156 µM)	128 (≈ 312 µM)	256 (≈ 624 µM)	
CCCCCCCCCCOCC(O)=C1C(=O)N(C(C)=O)c2ccccc21 [A013, N-acetyl-3-decyloxyacetyl-2-oxyindole]	32 (≈ 85.7 µM)	256 (≈ 685 µM)	256 (≈ 685 µM)	256 (≈ 685 µM)	64 (≈ 171 µM)	256 (≈ 685 µM)	256 (≈ 685 µM)	0.5 (≈ 1.34 µM)	0.25 (≈ 0.669 µM)				
CCCCCCCCCCOCC(O)=C1C(=O)N(C(C)=O)c2ccc(Br)cc21 [A029, N-acetyl-5-bromo-3-decyloxyacetyl-2-oxyindole]		128 (≈ 283 µM)	128 (≈ 283 µM)	128 (≈ 283 µM)	0.25 (≈ 0.553 µM)	128 (≈ 283 µM)	0.5 (≈ 1.11 µM)	< 0.125	< 0.125				< 0.125
CC(C)[C@H]1CC[C@H](C)CC1OCC(=O)c1c(O)c2ccccc2oc1=O (stereo in doubt) [B006, 4-hydroxy-3-menthyloxyacetylcoumarin]	2 (≈ 5.58 µM)	1 (≈ 2.79 µM)	2 (≈ 5.58 µM)	128 (≈ 357 µM)	2 (≈ 5.58 µM)	2 (≈ 5.58 µM)	1 (≈ 2.79 µM)	1 (≈ 2.79 µM)	2 (≈ 5.58 µM)				
CCCCCCCCCC(O)=C1C(=O)N(C(=O)Nc2ccccc2C(F)(F)F)c2ccccc21 [A054, N-(2-(trifluoromethyl)phenylaminocarbonyl)-3-decanoyl-2-oxyindole]	1 (≈ 2.11 µM)	2 (≈ 4.21 µM)	2 (≈ 4.21 µM)	256 (≈ 539 µM)	1 (≈ 2.11 µM)	256 (≈ 539 µM)	0.5 (≈ 1.05 µM)	< 0.125	< 0.125				
CCCCCCCCCCOCC(O)=C1C(=O)N(C(=O)Nc2ccccc2)c2ccccc21 [A019, N-(phenylaminocarbonyl)-3-decyloxyacetyl-2-oxyindole]	4 (≈ 8.88 µM)	256 (≈ 568 µM)	256 (≈ 568 µM)	256 (≈ 568 µM)	1 (≈ 2.22 µM)	128 (≈ 284 µM)	4 (≈ 8.88 µM)	2 (≈ 4.44 µM)	0.5 (≈ 1.11 µM)				
O=C(Nc1ccccc1)N1C(=O)C(=C(O)CCCCCCCCCBr)c2ccccc21 [A025, N-(phenylaminocarbonyl)-3-(10-bromodecanoyl)-2-oxyindole]	0.5 (≈ 1.03 µM)	256 (≈ 527 µM)	256 (≈ 527 µM)	256 (≈ 527 µM)	0.5 (≈ 1.03 µM)	256 (≈ 527 µM)	2 (≈ 4.12 µM)	1 (≈ 2.06 µM)	0.5 (≈ 1.03 µM)				
CCCCCCCCNC(=O)c1c(O)c2ccccc2oc1=O [B020, 3-(octylaminocarbonyl)-4-hydroxycoumarin]	1 (≈ 3.15 µM)	8 (≈ 25.2 µM)	16 (≈ 50.4 µM)	64 (≈ 202 µM)	1 (≈ 3.15 µM)	32 (≈ 101 µM)	8 (≈ 25.2 µM)	8 (≈ 25.2 µM)	1 (≈ 3.15 µM)				
CCCCCCCCCCOCC(=O)c1c(O)c2cc(Cl)ccc2oc1=O [B028, 3-decyloxyacetyl-6-chloro-4-hydroxycoumarin]	256 (≈ 648 µM)	128 (≈ 324 µM)	256 (≈ 648 µM)	256 (≈ 648 µM)	256 (≈ 648 µM)	256 (≈ 648 µM)	8 (≈ 20.3 µM)	0.25 (≈ 0.633 µM)	0.25 (≈ 0.633 µM)				
CCCCC1CCC(C(O)=C2C(=O)N(C(=O)OC(C)(C)C)c3cc(Cl)ccc32)CC1 (stereo not drawn) [A009, N-Boc-3-(4-butylcyclohexylcarbonyl)-6-chloro-2-oxyindole]	4 (≈ 9.22 µM)	128 (≈ 295 µM)	256 (≈ 590 µM)	128 (≈ 295 µM)	4 (≈ 9.22 µM)	128 (≈ 295 µM)	32 (≈ 73.7 µM)	1 (≈ 2.3 µM)	0.5 (≈ 1.15 µM)				
CCCCCCCCCCOCC(O)=C1C(=O)N(C(=O)Nc2ccc(Br)cc2)c2ccccc21 [A038, N-(4-bromophenylaminocarbonyl)-3-decyloxyacetyl-2-oxyindole]	16 (≈ 30.2 µM)	64 (≈ 121 µM)	64 (≈ 121 µM)	128 (≈ 242 µM)	8 (≈ 15.1 µM)	128 (≈ 242 µM)	64 (≈ 121 µM)	16 (≈ 30.2 µM)	32 (≈ 60.4 µM)				
